Measurements published in paper PMC9226124, “Macrocycle-stabilization of its interaction with 14-3-3 increases plasma membrane localization and activity of CFTR” (Nature Communications, 2022).
Values joined by “and” are separate entries in the source; they are usually repeats but may differ in a detail not shown here. Identical values can stand only once.

Legend:
[1] = target: T1, FITC-labeled CFTRpS753pS768 peptide (no 14-3-3) (Homo sapiens, UniProt P13569); experiment: Dose-response FP control assay in the absence of 14-3-3; type: binding; conditions: No 14-3-3
T1 construct: made in house; host or cells: synthetic peptide
Method: The 14-3-3β concentration used for the FP screening assay was 10 μM (dashed line). c HTS FP assay of the Cyclenium library. The samples contain 100 nM of FITC-CFTR_pS753pS768 peptide, 10 μM 14-3-3β, and 50 μM compound. FC-A (100 µM) was added as a positive control and DMSO as the negative control. Hit compounds are defined as a polarization increase which is higher than 20% of the response of FC-A. Red squares are compounds that appeared positive in the negative control without 14-3-3. […] Background polarization was subtracted from all values, n = 3 technical replicates. Compounds selected for further analysis are indicated with an asterisk. e Polarization in the absence of 14-3-3. […] Source data are provided as a Source Data file.
The FITC-labeled peptides were dissolved in FP buffer (10 mM HEPES pH 7.4, 150 mM NaCl, 0.1% Tween20, 1 mg/mL BSA) to a final concentration of 100 nM or 10 nM. For the dose-response assays, a 14-3-3β concentration of 10 μM was used while titrating the compounds in a two-times dilution series and, for the other assays, a dilution series of 14-3-3β was made with constant concentration of compound. The dilution series were made in 384 Corning Black Round Bottom well plates and their polarization was measured with a Tecan Infinite F500 plate reader (ex. = 485 nm, em. = 535 nm). The method of fitting of the curves was: “log(agonist) vs. response – Variable slope (four parameters)” from GraphPad Prism. The equation is Y = Bottom + (Top-Bottom)/(1 + 10^((LogEC50-X)*HillSlope)).

[2] = target: T2, 14-3-3β/CFTRpS753pS768 complex (Homo sapiens, UniProt P13569+P31946); experiment: FP assay, 14-3-3β titration at constant compound concentration (apparent KD); type: binding
T2 construct: His6 (cleaved yes); made in house; peptide synthetic
Method: FC-A (100 µM) was added as a positive control and DMSO as the negative control. […] Background polarization was subtracted from all values, n = 3 technical replicates. […] Source data are provided as a Source Data file. […]
The FITC-labeled peptides were dissolved in FP buffer (10 mM HEPES pH 7.4, 150 mM NaCl, 0.1% Tween20, 1 mg/mL BSA) to a final concentration of 100 nM or 10 nM. […] The dilution series were made in 384 Corning Black Round Bottom well plates and their polarization was measured with a Tecan Infinite F500 plate reader (ex. = 485 nm, em. = 535 nm). The method of fitting of the curves was: “log(agonist) vs. response – Variable slope (four parameters)” from GraphPad Prism. The equation is Y = Bottom + (Top-Bottom)/(1 + 10^((LogEC50-X)*HillSlope)).
from the hit validation library.
f the compound, 100 µM FC-A, or both compound and FC-A, 100 µM each. Background polarization was subtracted f
rom all values, n=3 technical replicates.
Source data are provided as a Source Data file.

[3] = CY compound (100 μM), 14-3-3β concentration 1.5625e-5 M
[4] = CY compound (100 μM), 14-3-3β concentration 3.125e-5 M
[5] = CY compound (100 μM), 14-3-3β concentration 6.25e-5 M
[6] = CY compound (100 μM), 14-3-3β concentration 0.000125 M
[7] = CY compound (100 μM), 14-3-3β concentration 0.00025 M
[8] = CY compound (100 μM), 14-3-3β concentration 0.0005 M
[9] = FC-A + CY compound, 14-3-3β concentration 1.5625e-5 M
[10] = FC-A + CY compound, 14-3-3β concentration 3.125e-5 M
[11] = FC-A + CY compound, 14-3-3β concentration 6.25e-5 M
[12] = FC-A + CY compound, 14-3-3β concentration 0.000125 M
[13] = FC-A + CY compound, 14-3-3β concentration 0.00025 M
[14] = FC-A + CY compound, 14-3-3β concentration 0.0005 M

T2 sequence (P31946 whole entry): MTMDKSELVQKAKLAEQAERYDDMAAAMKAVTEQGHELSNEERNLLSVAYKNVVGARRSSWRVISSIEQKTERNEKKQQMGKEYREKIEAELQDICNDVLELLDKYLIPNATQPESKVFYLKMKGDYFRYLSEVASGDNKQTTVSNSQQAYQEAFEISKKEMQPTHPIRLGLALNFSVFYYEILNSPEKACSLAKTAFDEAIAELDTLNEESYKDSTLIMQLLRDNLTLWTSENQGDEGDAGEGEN
T2 sequence (P13569 747-774 limits assumed): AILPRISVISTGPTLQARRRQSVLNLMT

N=C(N)NCCCC1NC(=O)C(CCC(N)=O)NC(=O)C(CCCNC(=N)N)NC(=O)C2CCCN2Cc2cccc(c2)-c2ccccc2CNC1=O (centres unmarked) [CY007455]
FP signal ([1]; compound 476.8 pM): 5
FP signal ([1]; compound 953.7 pM): 6
FP signal ([1]; compound 1.90735e-9 M): 3
FP signal ([1]; compound 3.8147e-9 M): 4
FP signal ([1]; compound 7.6294e-9 M): 5
FP signal ([1]; compound 1.52588e-8 M): 4
FP signal ([1]; compound 3.05176e-8 M): 4
FP signal ([1]; compound 6.10352e-8 M): 5
FP signal ([1]; compound 1.2207e-7 M): 7
FP signal ([1]; compound 2.44141e-7 M): 6
FP signal ([1]; compound 4.88281e-7 M): 4
FP signal ([1]; compound 9.76563e-7 M): 4
FP signal ([1]; compound 1.95313e-6 M): 5
FP signal ([1]; compound 3.90625e-6 M): 9
FP signal ([1]; compound 7.8125e-6 M): 8
FP signal ([1]; compound 1.5625e-5 M): 15
FP signal ([1]; compound 3.125e-5 M): 26
FP signal ([1]; compound 6.25e-5 M): 53
FP signal ([1]; compound 0.000125 M): 107
FP signal ([1]; compound 0.00025 M): 170
FP signal ([1]; compound 0.0005 M): 209
FP signal ([1]; compound 0.001 M): 244
Fluorescence polarization signal, 14-3-3β titration ([2]; CY compound (100 μM), 14-3-3β concentration 119.2 pM): 1.333
Fluorescence polarization signal, 14-3-3β titration ([2]; CY compound (100 μM), 14-3-3β concentration 4.88281e-7 M): 8.333 and 7.333
Fluorescence polarization signal, 14-3-3β titration ([2]; CY compound (100 μM), 14-3-3β concentration 9.76563e-7 M): 12.3333 and 8.333 and 11.3333
Fluorescence polarization signal, 14-3-3β titration ([2]; CY compound (100 μM), 14-3-3β concentration 1.95313e-6 M): 20.3333 and 17.3333 and 14.3333
Fluorescence polarization signal, 14-3-3β titration ([2]; CY compound (100 μM), 14-3-3β concentration 3.90625e-6 M): 27.3333 and 24.3333 and 22.3333
Fluorescence polarization signal, 14-3-3β titration ([2]; CY compound (100 μM), 14-3-3β concentration 7.8125e-6 M): 38.3333 and 32.3333 and 35.3333
Fluorescence polarization signal, 14-3-3β titration [2, 3]: 51.3333 and 50.3333 and 48.3333
Fluorescence polarization signal, 14-3-3β titration [2, 4]: 68.3333 and 69.3333 and 65.3333
Fluorescence polarization signal, 14-3-3β titration [2, 5]: 92.3333 and 88.3333 and 91.3333
Fluorescence polarization signal, 14-3-3β titration [2, 6]: 110.333 and 109.333
Fluorescence polarization signal, 14-3-3β titration [2, 7]: 128.333 and 124.333 and 127.333
Fluorescence polarization signal, 14-3-3β titration [2, 8]: 152.333 and 149.333
Fluorescence polarization signal, 14-3-3β titration ([2]; FC-A + CY compound, 14-3-3β concentration 119.2 pM): 2 and 1
Fluorescence polarization signal, 14-3-3β titration ([2]; FC-A + CY compound, 14-3-3β concentration 6.10352e-8 M): 5 and 6 and 9
Fluorescence polarization signal, 14-3-3β titration ([2]; FC-A + CY compound, 14-3-3β concentration 1.2207e-7 M): 9 and 7
Fluorescence polarization signal, 14-3-3β titration ([2]; FC-A + CY compound, 14-3-3β concentration 2.44141e-7 M): 10 and 13 and 15
Fluorescence polarization signal, 14-3-3β titration ([2]; FC-A + CY compound, 14-3-3β concentration 4.88281e-7 M): 23 and 24 and 20
Fluorescence polarization signal, 14-3-3β titration ([2]; FC-A + CY compound, 14-3-3β concentration 9.76563e-7 M): 41 and 39 and 35
Fluorescence polarization signal, 14-3-3β titration ([2]; FC-A + CY compound, 14-3-3β concentration 1.95313e-6 M): 58 and 54 and 52
Fluorescence polarization signal, 14-3-3β titration ([2]; FC-A + CY compound, 14-3-3β concentration 3.90625e-6 M): 74 and 73 and 71
Fluorescence polarization signal, 14-3-3β titration ([2]; FC-A + CY compound, 14-3-3β concentration 7.8125e-6 M): 91 and 96 and 92
Fluorescence polarization signal, 14-3-3β titration [2, 9]: 115 and 114
Fluorescence polarization signal, 14-3-3β titration [2, 10]: 128 and 129 and 126
Fluorescence polarization signal, 14-3-3β titration [2, 11]: 141 and 144
Fluorescence polarization signal, 14-3-3β titration [2, 12]: 157 and 153 and 158
Fluorescence polarization signal, 14-3-3β titration [2, 13]: 160 and 164
Fluorescence polarization signal, 14-3-3β titration [2, 14]: 175 and 174

N=C(N)NCCCC1NC(=O)C(CCC(N)=O)NC(=O)C(CCCNC(=N)N)NC(=O)C2CCCN2Cc2cccc(c2)-c2ccccc2CNC1=O (centres unmarked) [CY007458]
FP signal ([1]; compound 476.8 pM): 6
FP signal ([1]; compound 953.7 pM): 5
FP signal ([1]; compound 1.90735e-9 M): 4
FP signal ([1]; compound 3.8147e-9 M): 5
FP signal ([1]; compound 7.6294e-9 M): 7
FP signal ([1]; compound 1.52588e-8 M): 4
FP signal ([1]; compound 3.05176e-8 M): 6
FP signal ([1]; compound 6.10352e-8 M): 5
FP signal ([1]; compound 1.2207e-7 M): 4
FP signal ([1]; compound 2.44141e-7 M): 5
FP signal ([1]; compound 4.88281e-7 M): 6
FP signal ([1]; compound 9.76563e-7 M): 6
FP signal ([1]; compound 1.95313e-6 M): 5
FP signal ([1]; compound 3.90625e-6 M): 8
FP signal ([1]; compound 7.8125e-6 M): 11
FP signal ([1]; compound 1.5625e-5 M): 15
FP signal ([1]; compound 3.125e-5 M): 33
FP signal ([1]; compound 6.25e-5 M): 65
FP signal ([1]; compound 0.000125 M): 124
FP signal ([1]; compound 0.00025 M): 179
FP signal ([1]; compound 0.0005 M): 221
FP signal ([1]; compound 0.001 M): 252
Fluorescence polarization signal, 14-3-3β titration [2, 3]: 76.6667
Fluorescence polarization signal, 14-3-3β titration [2, 4]: 83.6667 and 85.6667
Fluorescence polarization signal, 14-3-3β titration [2, 5]: 102.667 and 98.6667 and 101.667
Fluorescence polarization signal, 14-3-3β titration [2, 6]: 115.667 and 111.667 and 118.667
Fluorescence polarization signal, 14-3-3β titration [2, 7]: 131.667 and 136.667 and 132.667
Fluorescence polarization signal, 14-3-3β titration [2, 8]: 153.667 and 151.667 and 152.667
Fluorescence polarization signal, 14-3-3β titration [2, 9]: 140.333 and 143.333 and 144.333
Fluorescence polarization signal, 14-3-3β titration [2, 10]: 147.333 and 148.333 and 150.333
Fluorescence polarization signal, 14-3-3β titration [2, 11]: 156.333
Fluorescence polarization signal, 14-3-3β titration [2, 12]: 159.333 and 161.333 and 160.333
Fluorescence polarization signal, 14-3-3β titration [2, 13]: 164.333 and 167.333
Fluorescence polarization signal, 14-3-3β titration [2, 14]: 175.333 and 176.333 and 172.333
